Results as given in patent US4414388A, “1-Oxo-1H-thiazolo[3,2-a]pyrimidine-2-carboxamides” (Pfizer Inc., priority 1981, dated 1983).

What was measured:
anesthetized dogs = experiment: cardiovascular effects in anesthetized dogs; assay type: in vivo, dog; conditions: cumulative doses of 5 and 15 mg/kg, i.v.
urinary volume output = experiment: diuretic activity; assay type: in vivo; conditions: oral
Experimental: When given orally, it caused a dose-related increase in urinary volume output at doses in the range 0.3 to 5 mg/kg. […] These findings indicate that the dose-response range for diuretic activity is considerably higher than that for antiulcer effects and just below that for antiallergy effects (1 to 10 mg/kg).

anticholinergic effects = experiment: anticholinergic effects
histamine and serotonin = experiment: cutaneous permeability caused by intradermal exogenous histamine and serotonin; assay type: in vivo, rat
Experimental: The ability of agents to interfere with PCA reactions is measured in male Charles River Wistar rats, 170-210 g. Reaginic antiserum, rich in IgE antibodies, is prepared according to Petillo et al., Int. Arch. Allergy, 44, 309 (1973). Hyperimmune antiserum rich in IgG antibodies to hen egg albumin is prepared according to Orange et al., J. Exptl. Med., 127, 767 (1968). Forty-eight hours prior to antigen challenge, the reaginic antiserum is injected intradermally (i.d.) into the shaved skin of a normal rat's back; 5 hours before challenge the hyperimmune antisera is similarly injected. At a third site 60 mcg. histamine dihydrochloride and 0.5 mcg. serotonin creatinine sulfate are injected i.d. just prior to antigen challenge as a check for antihistaminic, antiserotonin and unspecific types of blockage; the compounds of the instant invention or saline are then administered i.v. and immediately followed by the challenge of 5 mg. egg albumen and 2.5 mg. Evans' Blue dye in saline. In the case of oral administration Evans' Blue dye and egg albumin are given 5 minutes after administration of the drug. Thirty minutes later the animals are asphyxiated using chloroform and the skin of the back removed and reversed for observation. […] The difference is expressed as percent blockage due to the compound employed.

isolated rat monocytes = experiment: ionophore-stimulated synthesis and release of SRS in isolated monocytes; assay type: cell-based
glucose tolerance = experiment: glucose tolerance; assay type: in vivo, rat; conditions: 10, 30, or 100 mg/kg p.o. with glucose 1 g/kg p.o.
From the text: This effect may be due to a delayed absorption of glucose related to a possible effect on gastric emptying.

[1] = tested on: pentagastrin-stimulated acid output; experiment: pentagastrin-stimulated acid output in Heidenhain pouch dogs; assay type: in vivo, dog; conditions: 5 mg/kg, i.v.
[2] = tested on: ulcerogenic effects of aspirin; experiment: aspirin-induced gastric ulcer; assay type: in vivo; conditions: po; aspirin 100 mg/kg p.o.
Experimental: Compound III also protects against the ulcerogenic effects of aspirin, 100 mg/kg p.o. where dose-related effects are seen over the dose range of 10 to 1000 μg/kg, p.o. with an ED50 of 100 μg/kg. Compound III is also active in a phenylbutazone gastric ulcer model where an oral ED50 of 200 μg/kg is observed. […] "Cytoprotective," a term coined recently to describe the antiulcer effects of prostaglandins that are independent of antisecretory activity, [Robert, Advances in Prostaglandin and Thromboxane Research 2, 507 (1976); Miller et al., Gut 20, 75 (1979); Robert et al., Gastroenterology 72, 1121 (1977).] aptly characterizes the effects of compound III.

[3] = tested on: passive systemic anaphylaxis; experiment: passive systemic anaphylaxis (rise in plasma histamine on antigen challenge); assay type: in vivo, rat
[4] = tested on: IgE-mediated passive cutaneous anaphylaxis (PCA); experiment: PCA test, intravenous, comparison with Intal, IgE-mediated permeability; assay type: in vivo, rat
Experimental: In the PCA test, normal animals are injected intradermally (i.d.) with antibodies contained in serum obtained from actively sensitized animals. The animals are then challenged intravenously with antigen mixed with a dye such as Evans' Blue. The increased capillary permeability caused by the antigen-antibody reaction causes the dye to leak from the site of the antibody injection. The test animals are then asphyxiated and the intensity of the reaction determined by measuring the diameter and intensity of the blue coloration on the inner surface of the animals' skin.
The ability of agents to interfere with PCA reactions is measured in male Charles River Wistar rats, 170-210 g. Reaginic antiserum, rich in IgE antibodies, is prepared according to Petillo et al., Int. Arch. […] Hyperimmune antiserum rich in IgG antibodies to hen egg albumin is prepared according to Orange et al., J. Exptl. […] Forty-eight hours prior to antigen challenge, the reaginic antiserum is injected intradermally (i.d.) into the shaved skin of a normal rat's back; 5 hours before challenge the hyperimmune antisera is similarly injected. […] The difference is expressed as percent blockage due to the compound employed.

[5] = tested on: dextran induced release of histamine; experiment: dextran induced release of histamine into the rat peritoneal cavity; assay type: in vivo; conditions: ip
From the text: Compound III inhibits dextran induced release of histamine into the rat peritoneal cavity.

[6] = plasma concentration / oral absorption in rats; assay type: in vivo, rat
Experimental: This is supported by the observations of plasma concentrations of 3 to 7 μg/ml one hour after oral administration of III, 50 to 300 mg/kg.

rats = experiment: toleration study in rats, 10 days oral; assay type: in vivo, rat
Experimental: Rats were given III orally by gavage at doses of 50, 150 and 300 mg/kg/day for 10 days.

[7] = oral gavage 50, 150 and 300 mg/kg/day

O=C(Nc1nnn[nH]1)c1cnc2sc3c(n2c1=O)CCCC3 [compound III, N-(5-tetrazolyl)-1-oxo-1H-cyclohexenothiazolo[3,2-a]pyrimidine-2-carboxamide]
blood pressure (anesthetized dogs): transient hypotension | heart rate (anesthetized dogs): variable changes in heart rate | pressor responses to epinephrine and bilateral carotid occlusion (anesthetized dogs): diminished slightly | sodium and potassium excretion (urinary volume output): an increase in sodium and potassium excretion was observed | urinary concentrations of sodium and potassium ions (urinary volume output): unchanged | maximum effect on urinary volume output (urinary volume output; 0.3 to 5 mg/kg): twofold increase in volume output | anticholinergic effects (anticholinergic effects): no significant anticholinergic effects | changes in permeability caused by intradermal histamine and serotonin (histamine and serotonin; exogenous histamine and serotonin, intradermal): does not interfere with the changes in permeability | antihistaminic and antiserotonin effects (histamine and serotonin; rat, in vivo): absence of antihistaminic and antiserotonin effects | synthesis and release of SRS in isolated rat monocytes, stimulated by an ionophore (isolated rat monocytes): is not inhibited | effect on glucose tolerance (glucose tolerance): apparent dose-dependent improvement in glucose tolerance | pentagastrin-stimulated acid output [1]: does not affect pentagastrin-stimulated acid output | ED50 [2]: 0.1 mg/kg | ED50 ([3]; Rattus norvegicus, iv, rats passively sensitized with IgE-rich antiserum): 0.028 mg/kg | rise in plasma histamine caused by antigen challenge ([3]; rat, in vivo): prevented | intravenous activity in the PCA test, dose range ([4]; intravenous): 0.03 to 1.0 mg/kg | changes in cutaneous permeability induced by IgE-mediated PCA ([4]; rat, in vivo): blocks the changes in cutaneous permeability | ED50 [5]: 0.00033 mg/kg | concentration at 1 h ([6]; plasma, rat, one hour, oral 50 to 300 mg/kg, read-out: plasma concentration one hour after oral administration, rat): 3000 to 7000 ng/mL | oral absorption, rat ([6]; ratio of comparably effective oral and intravenous doses in rat PCA test): good oral absorption | serum glutamic-pyruvic transaminase (rats; highest dose (300 mg/kg/day)): slight increase | changes in clinical chemistry (other than serum glutamic-pyruvic transaminase) (rats; [7]): no changes in clinical chemistry were observed | pathological changes on gross and microscopic evaluation of liver, kidney, heart and lung (rats; [7]): no resultant pathological changes
